Results taken from PubChem BioAssay AID248 (DTP/NCI, 2004).
Inconclusive results and toxic doses are left out.

Test system: L1210 leukemia ip in BDF1 mice, survival T/C
Experiment: NCI In Vivo Anticancer Drug Screen. Data for tumor model L1210 Leukemia (intraperitoneal) in B6D2F1 (BDF1) mice
Conditions: endpoint: mean survival time, higher = longer survival
How it was run: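 Transplanted-tumor mice were given test agent; controls received vehicle only. Survival readings from the two groups were divided (treated over control).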

[1] = dose: 100.0 mg/kg/injection, schedule: Q01DX001 (ip), vehicle: saline
[2] = dose: 200.0 mg/kg/injection, schedule: Q01DX001 (ip), vehicle: saline
[3] = dose: 100.0 mg/kg/injection, schedule: Q04DX003 (ip), vehicle: saline sonified
[4] = dose: 100.0 mg/kg/injection, schedule: Q01DX009 (ip), vehicle: saline with Tween-80
[5] = dose: 200.0 mg/kg/injection, schedule: Q01DX009 (ip), vehicle: saline with Tween-80
[6] = dose: 100.0 mg/kg/injection, schedule: Q04DX003 (ip), vehicle: Klucel (hydroxypropylcellulose) (HPC)
[7] = dose: 200.0 mg/kg/injection, schedule: Q04DX003 (ip), vehicle: Klucel (hydroxypropylcellulose) (HPC)
[8] = dose: 100.0 mg/kg/injection, schedule: Q01DX009 (ip), vehicle: Klucel (hydroxypropylcellulose) (HPC)
[9] = dose: 200.0 mg/kg/injection, schedule: Q01DX009 (ip), vehicle: Klucel (hydroxypropylcellulose) (HPC)
[10] = dose: 400.0 mg/kg/injection, schedule: Q04DX003 (ip), vehicle: Klucel (hydroxypropylcellulose) (HPC)
[11] = dose: 100.0 mg/kg/injection, schedule: Q04DX002 (ip), vehicle: Klucel (hydroxypropylcellulose) (HPC)

For `CCOC1OCN(C(C)(C)C)CC1(C)C` (stereo not drawn), the T/C (dose: 100.0 mg/kg/injection, schedule: Q01DX009 (ip), vehicle: saline) was 118 % of control and the T/C (dose: 200.0 mg/kg/injection, schedule: Q01DX009 (ip), vehicle: saline) was 116 % of control.

With `COc1cc(C2=N/C(=C\C=C\c3ccccc3)C(=O)O2)cc(OC)c1OC` the T/C (dose: 100.0 mg/kg/injection, schedule: Q04DX002 (ip), vehicle: saline with Tween-80) was 95 % of control, the T/C (dose: 200.0 mg/kg/injection, schedule: Q04DX002 (ip), vehicle: saline with Tween-80) was 95 % of control and the T/C (dose: 400.0 mg/kg/injection, schedule: Q04DX002 (ip), vehicle: saline with Tween-80) was 95 % of control.

For `Nc1cccn2ncnc12`, the T/C [1] was 103 % of control, the T/C [2] was 104 % of control and the T/C (dose: 400.0 mg/kg/injection, schedule: Q01DX001 (ip), vehicle: saline) was 97 % of control.

In the case of `Cn1cnnc1[N+](=O)[O-]`, the T/C [3] was 105 % of control.

For `CCOC(=O)c1c[nH]c2ccc([N+](=O)[O-])cc2c1=O`, the T/C (dose: 25.0 mg/kg/injection, schedule: Q01DX001 (ip), vehicle: Klucel (hydroxypropylcellulose) (HPC)) was 97 % of control, the T/C (dose: 50.0 mg/kg/injection, schedule: Q01DX001 (ip), vehicle: Klucel (hydroxypropylcellulose) (HPC)) was 97 % of control and the T/C (dose: 100.0 mg/kg/injection, schedule: Q01DX001 (ip), vehicle: Klucel (hydroxypropylcellulose) (HPC)) was 97 % of control.

For `CCCCn1cnc2c(=O)n(C)c(=O)n(C)c21`, the T/C [1] was 96 % of control and the T/C [2] was 94 % of control.

With `CNC(=O)NNc1ccccc1` the T/C [4] was 101 % of control, the T/C [5] was 101 % of control and the T/C (dose: 400.0 mg/kg/injection, schedule: Q01DX009 (ip), vehicle: saline with Tween-80) was 105 % of control.

In the case of `O=C(O)/C=C/S(=O)(=O)Cc1ccccc1`, the T/C [6] was 98 % of control and the T/C [7] was 100 % of control.

In the case of `O=C1OC(=O)C2C3C=CC(C3=C(c3ccccc3)c3ccccc3)C12` (stereo not drawn), the T/C [8] was 92 % of control, the T/C [4] was 97 % of control and the T/C [6] was 92 % of control. The T/C [9] was 97 % of control, the T/C [5] was 100 % of control and the T/C (dose: 200.0 mg/kg/injection, schedule: Q04DX003 (ip), vehicle: saline with Tween-80) was 90 % of control. For the same compound, the T/C [10] was 87 % of control and the T/C (dose: 400.0 mg/kg/injection, schedule: Q04DX003 (ip), vehicle: saline with Tween-80) was 92 % of control.

With `CN(C)C(=N)[Se]` the T/C (dose: 6.25 mg/kg/injection, schedule: Q01DX009 (ip), vehicle: saline) was 97 % of control and the T/C (dose: 12.5 mg/kg/injection, schedule: Q01DX009 (ip), vehicle: saline) was 92 % of control.

With `CC(=O)c1ccc[n+](Cc2ccc([N+](=O)[O-])cc2)c1` the T/C [3] was 98 % of control.

With `O=C(O)c1cccc(I)c1.[Ni]` the T/C (dose: 25.0 mg/kg/injection, schedule: Q04DX002 (ip), vehicle: gum acacia) was 100 % of control and the T/C (dose: 50.0 mg/kg/injection, schedule: Q04DX002 (ip), vehicle: gum acacia) was 94 % of control.

In the case of `NC(=O)c1cc(Cl)ccc1OC(=O)Nc1ccccc1F`, the T/C [8] was 115 % of control, the T/C [9] was 102 % of control and the T/C (dose: 400.0 mg/kg/injection, schedule: Q01DX009 (ip), vehicle: Klucel (hydroxypropylcellulose) (HPC)) was 98 % of control.

`C(=N\OCCc1ccccc1)/c1cccnc1` was tested, and the T/C (dose: 100.0 mg/kg/injection, schedule: Q01DX009 (ip), vehicle: saline sonified) was 98 % of control, the T/C (dose: 200.0 mg/kg/injection, schedule: Q01DX009 (ip), vehicle: saline sonified) was 100 % of control and the T/C (dose: 400.0 mg/kg/injection, schedule: Q01DX009 (ip), vehicle: saline sonified) was 102 % of control.

With `CC1CC(C)(C)OCO1` (stereo not drawn) the T/C [6] was 100 % of control, the T/C [7] was 93 % of control and the T/C [10] was 86 % of control.

For `CCOC(=O)C(O)(CC)CCC(C)C` (stereo not drawn), the T/C (dose: 50.0 mg/kg/injection, schedule: Q01DX009 (ip), vehicle: saline with Tween-80) was 101 % of control, the T/C [4] was 101 % of control and the T/C [5] was 111 % of control.

For `O=c1[nH]c(-c2ccccc2)nc2[nH]ncc12`, the T/C [6] was 105 % of control, the T/C [7] was 92 % of control and the T/C [10] was 87 % of control.

With `CCOC(=O)CCc1nc2ccc3ccccc3c2c(=O)[nH]1` the T/C [11] was 88 % of control, the T/C (dose: 200.0 mg/kg/injection, schedule: Q04DX002 (ip), vehicle: Klucel (hydroxypropylcellulose) (HPC)) was 91 % of control and the T/C (dose: 400.0 mg/kg/injection, schedule: Q04DX002 (ip), vehicle: Klucel (hydroxypropylcellulose) (HPC)) was 94 % of control.

In the case of `OCC1OC(n2ncc3ccccc32)C(O)C1O` (stereo not drawn), the T/C (dose: 50.0 mg/kg/injection, schedule: Q01DX005 (ip), vehicle: other) was 109 % of control, the T/C (dose: 100.0 mg/kg/injection, schedule: Q01DX005 (ip), vehicle: other) was 105 % of control and the T/C (dose: 200.0 mg/kg/injection, schedule: Q01DX005 (ip), vehicle: other) was 98 % of control.

`CCCCCCC[CH2][Sn]([CH2]CCCCCCC)([NH]S(=O)(=O)c1ccc(C)cc1)[NH]S(=O)(=O)c1ccc(C)cc1` was tested, and the T/C (dose: 18.75 mg/kg/injection, schedule: Q01DX009 (ip), vehicle: saline sonified) was 102 % of control, the T/C (dose: 37.5 mg/kg/injection, schedule: Q01DX009 (ip), vehicle: saline sonified) was 86 % of control and the T/C (dose: 75.0 mg/kg/injection, schedule: Q04DX003 (ip), vehicle: Klucel (hydroxypropylcellulose) (HPC)) was 107 % of control.

`Cn1nnc2c1C(=O)c1ccccc1C2=O` was tested, and the T/C (dose: 100.0 mg/kg/injection, schedule: Q04DX003 (ip), vehicle: other) was 97 % of control and the T/C (dose: 200.0 mg/kg/injection, schedule: Q04DX003 (ip), vehicle: other) was 97 % of control.

With `CCCCSc1n[nH]c(=O)nc1SC` the T/C (dose: 100.0 mg/kg/injection, schedule: Q01DX001 (ip), vehicle: acetone) was 104 % of control.

In the case of `O=[N+]([O-])c1cc(Cl)cc2c1-c1ccc(Cl)cc1C2`, the T/C [6] was 98 % of control, the T/C [7] was 98 % of control and the T/C [10] was 98 % of control.

With `S=c1[nH]c2cc3ccccc3cc2[nH]1` the T/C (dose: 75.0 mg/kg/injection, schedule: Q01DX001 (ip), vehicle: saline) was 98 % of control, the T/C (dose: 150.0 mg/kg/injection, schedule: Q01DX001 (ip), vehicle: saline) was 101 % of control and the T/C (dose: 300.0 mg/kg/injection, schedule: Q01DX001 (ip), vehicle: saline) was 92 % of control.

In the case of `O=C(C1C(c2ccccc2)C1c1ccccc1)N(CCO)Cc1ccccc1` (stereo not drawn), the T/C (dose: 25.0 mg/kg/injection, schedule: Q04DX002 (ip), vehicle: Klucel (hydroxypropylcellulose) (HPC)) was 94 % of control, the T/C (dose: 50.0 mg/kg/injection, schedule: Q04DX002 (ip), vehicle: Klucel (hydroxypropylcellulose) (HPC)) was 103 % of control and the T/C [11] was 94 % of control.
